Test system: 935938-334-R-J1-PDC complex spheroid viability
Assay: Anticancer human tumor 935938-334-R-J1-PDC patient-derived small intestine adenocarcinoma cell line growth inhibition [POLQ]
Settings: for IC50: curve of first compound; for viability, T/C: stronger effect = lower value
Description: Multicellular complex tumor spheroid response to Polymerase (POL) inhibitors (novobiocin, ART-558, RP6685) in combination with a variety of drugs and investigational agents in selected tumor cell lines
The POL inhibitors (novobiocin, ART-558, and RP6685) were evaluated both individually and in combination with standard of care and investigational anticancer small molecules within a complex spheroid model of solid tumors. . Complex spheroids include a stromal component modeled by human endothelial cells (HUVEC) and fibroblasts modeled by human mesenchymal stem cells (MSCs). The concentration ranges selected for each drug and investigational agent were based upon clinically achievable concentrations if the clinical Cmax of the agent was known.
Compounds. The drugs and investigational agents: novobiocin (NSC847541), ART-558 (NSC835418), RP-6685 (NSC848927), peposertib (NSC802822), ceralasertib (NSC780249), elimusertib (NSC800525), camonsertib (NSC841442), AZD-1390 (NSC803789), olaparib (NSC753686), talazoparib (NSC767125), rucaparib (NSC756644), sotorasib (NSC818433), MRTX-1133 (NSC836407), SN-38 (NSC673596), topotecan (NSC609699), epotoside (NSC141540), doxorubicin (NSC123127), gemcitabine (NSC613327), 5-fluorouracil (NSC19893), paclitaxel (NSC125973), vemurafenib (NSC761431), MSA-2 (NSC828583), SN-011 (NSC837082), adavosertib (NSC754352), prexasertib (NSC758257), carboplatin (NSC241240) and oxaliplatin (NSC266046), were obtained from the National Cancer Institute (NCI) Developmental Therapeutics Program Chemical Repository (21). The FDA-approved anticancer drug set is available from the Developmental Therapeutics Program at https://dtp.cancer.gov/organization/dscb/obtaining/. […] The stock solutions were prepared in dimethyl sulfoxide (DMSO, Sigma-Aldrich, St. Louis, MO, cat. D2650), except for the platinum compounds which were prepared in saline (Quality Biological, Gaithersburg, MD, cat. 114-055-101), at 800-fold the tested concentration and stored at -70 degrees C prior to their use. All drugs and investigational agents were tested over a range starting from a high concentration at or near the clinical Cmax and decreasing in half-log increments. If the clinical Cmax for an agent had not been determined, the highest concentration tested was 10 microM, except for SN-38, which was tested at a high concentration of 1 microM.
Cell Culture. All cells were maintained in an incubator at 37 degrees C and 5% CO2 with 95% humidity. The PDC lines were cultured according to standard operating procedures established by the NCI PDMR (https://pdmr.cancer.gov). Table 3 of the manuscript, lists the cell lines along with the number of the three cell types plated to form the mct-spheroids and media for tumor cell growth. After thawing, all PDC lines, except 997537-175-T-J1-PDC and 415267-285-R-J2-PDC, were cultured in Matrigel-coated flasks prepared with a working solution of 1X Ham's F-12 nutrient mix, without supplementation (Thermo Fisher Scientific, cat. 11765054), 100 U/mL penicillin-streptomycin (Thermo Fisher Scientific, cat. 15140122), and 2.5% Matrigel (Corning Inc., Corning, NY, cat. 354248) for the first three passages. The two PDC lines 997537-175-T-J1-PDC and 415267-285-R-J2-PDC were cultured on uncoated flasks. The 857933-349-R-J2-PDC line was cultured in 6C/Colon 1B media containing advanced DMEM/F-12 (Thermo Fisher Scientific, cat. 12634028), 10 mM HEPES (Thermo Fisher Scientific, cat. 15630080), 1X GlutaMAX supplement (Thermo Fisher Scientific, cat. 35050061), 0.1 mg/mL primocin (InvivoGen, San Diego, CA, cat. ant-pm-2), 10% defined fetal bovine serum, heat inactivated (HyClone Laboratories Inc., Logan, UT, cat. SH30070.03HI), 50% L-WRN conditioned media (ATCC, cat. CRL-3276), 1.25 mM N-Acetyl-L-cysteine (Sigma-Aldrich, cat. A9165), 10 mM nicotinamide (Sigma-Aldrich, cat. N0636), 1X B-27 supplement (Thermo Fisher Scientific, cat. 17504044), 1X N-2 supplement (Thermo Fisher Scientific, cat. […]
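Also: spheroids exposed to drugs for seven days before viability read.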
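For viability, T/C in this document: 100% = DMSO vehicle control wells.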

For C=CC(=O)N1CCN(c2nc(=O)n(-c3c(C)ccnc3C(C)C)c3nc(-c4c(O)cccc4F)c(F)cc23)C(C)C1 (configuration not stated) + Cc1cccc(N(C)C(=O)C2C(O)CCN2c2nc(C)cc(C(F)(F)F)c2C#N)c1, the IC50 (second compound 0.0316 µM) was > 10 µM, the IC50 (second compound 0.1 µM) was > 10 µM and the IC50 (second compound 0.316 µM) was > 10 µM. For the same molecule, the IC50 (second compound 1 µM) was > 10 µM, the IC50 (second compound 3.16 µM) was > 10 µM and the IC50 (second compound 10 µM) was > 10 µM. The viability, T/C (second compound 0.0316 µM, first compound 0.0316 µM) was 94.3%, the viability, T/C (second compound 0.0316 µM, first compound 0.1 µM) was 98.4% and the viability, T/C (second compound 0.0316 µM, first compound 0.316 µM) was 77%. The viability, T/C (second compound 0.0316 µM, first compound 1 µM) was 101%, the viability, T/C (second compound 0.0316 µM, first compound 3.16 µM) was 88.1% and the viability, T/C (second compound 0.0316 µM, first compound 10 µM) was 109%. The viability, T/C (second compound 0.1 µM, first compound 0.0316 µM) was 116%, the viability, T/C (second compound 0.1 µM, first compound 0.1 µM) was 97.8% and the viability, T/C (second compound 0.1 µM, first compound 0.316 µM) was 91.3%. It also gave a viability, T/C (second compound 0.1 µM, first compound 1 µM) of 113%, a viability, T/C (second compound 0.1 µM, first compound 3.16 µM) of 90.4% and a viability, T/C (second compound 0.1 µM, first compound 10 µM) of 70.1%. For the same molecule, the viability, T/C (second compound 0.316 µM, first compound 0.0316 µM) was 76.7%, the viability, T/C (second compound 0.316 µM, first compound 0.1 µM) was 80.9% and the viability, T/C (second compound 0.316 µM, first compound 0.316 µM) was 105%. It also gave a viability, T/C (second compound 0.316 µM, first compound 1 µM) of 100%, a viability, T/C (second compound 0.316 µM, first compound 3.16 µM) of 81.2% and a viability, T/C (second compound 0.316 µM, first compound 10 µM) of 106%. The viability, T/C (second compound 1 µM, first compound 0.0316 µM) was 85.8%, the viability, T/C (second compound 1 µM, first compound 0.1 µM) was 111% and the viability, T/C (second compound 1 µM, first compound 0.316 µM) was 82.7%. The viability, T/C (second compound 1 µM, first compound 1 µM) was 108%, the viability, T/C (second compound 1 µM, first compound 3.16 µM) was 92.2% and the viability, T/C (second compound 1 µM, first compound 10 µM) was 99.7%. It also gave a viability, T/C (second compound 3.16 µM, first compound 0.0316 µM) of 96%, a viability, T/C (second compound 3.16 µM, first compound 0.1 µM) of 95% and a viability, T/C (second compound 3.16 µM, first compound 0.316 µM) of 74.6%. For the same molecule, the viability, T/C (second compound 3.16 µM, first compound 1 µM) was 96.3%, the viability, T/C (second compound 3.16 µM, first compound 3.16 µM) was 102% and the viability, T/C (second compound 3.16 µM, first compound 10 µM) was 79.1%. For the same molecule, the viability, T/C (second compound 10 µM, first compound 0.0316 µM) was 77.8%, the viability, T/C (second compound 10 µM, first compound 0.1 µM) was 80.6% and the viability, T/C (second compound 10 µM, first compound 0.316 µM) was 64.8%. It also gave a viability, T/C (second compound 10 µM, first compound 1 µM) of 94.9%, a viability, T/C (second compound 10 µM, first compound 3.16 µM) of 118% and a viability, T/C (second compound 10 µM, first compound 10 µM) of 107%.
